Species on record: Rattus norvegicus
Assay: DrugMatrix - Regimen: Daily Repeat
Type: toxicity, organism-based, Sprague-Dawley
Set-up: regimen Daily Repeat, gender Male, age 6-8 weeks
Conditions: in vivo, po, route oral GAVAGE, […]; for ABSOLUTE BASOPHIL / ABSOLUTE EOSINOPHIL / ABSOLUTE LYMPHOCYTE / ABSOLUTE MONOCYTE / ABSOLUTE SEGMENTED NEUTROPHIL / BASOPHIL / EOSINOPHIL / ERYTHROCYTE COUNT / HEMATOCRIT / HEMOGLOBIN / LEUKOCYTE COUNT / LYMPHOCYTE / MEAN CORPUSCULAR HEMOGLOBIN / MEAN CORPUSCULAR HEMOGLOBIN CONCENTRATION / MEAN CORPUSCULAR VOLUME / MONOCYTE / NEUTROPHIL / NUCLEATED RED BLOOD CELLS / PLATELET COUNT: tissue Blood; for ALANINE AMINOTRANSFERASE / ALBUMIN / ALKALINE PHOSPHATASE / ASPARTATE AMINOTRANSFERASE / BLOOD UREA NITROGEN / CARBON DIOXIDE / CHLORIDE / CHOLESTEROL / CREATINE PHOSPHOKINASE / CREATININE / GLUCOSE / LACTATE DEHYDROGENASE / LIPASE / PHOSPHORUS / POTASSIUM / SODIUM / TOTAL BILIRUBIN / TOTAL PROTEIN: tissue Plasma
[1] = 0 mg/kg, 72 h, dose level Control, time 3 day
[2] = 0 mg/kg, 120 h, dose level Control, time 5 day
[3] = 40 mg/kg, 72 h, dose level Low, time 3 day

CN(C)CCCC1(c2ccc(F)cc2)OCc2cc(C#N)ccc21 (stereo not given) [CITALOPRAM]
ABSOLUTE BASOPHIL [1]: 0 CELLS/uL
ABSOLUTE EOSINOPHIL [1]: 41.83 CELLS/uL
ABSOLUTE LYMPHOCYTE [1]: 8545.5 CELLS/uL
ABSOLUTE MONOCYTE [1]: 240 CELLS/uL
ABSOLUTE SEGMENTED NEUTROPHIL [1]: 906 CELLS/uL
BASOPHIL [1]: 0%
EOSINOPHIL [1]: 0.33%
ERYTHROCYTE COUNT [1]: 5.6 x10E6/uL
HEMATOCRIT [1]: 35.4%
HEMOGLOBIN [1]: 13.42 G/DL
LEUKOCYTE COUNT [1]: 9.73 x10E3/uL
LYMPHOCYTE [1]: 87.83%
MEAN CORPUSCULAR HEMOGLOBIN [1]: 23.98 pg
MEAN CORPUSCULAR HEMOGLOBIN CONCENTRATION [1]: 37.92 G/DL
MEAN CORPUSCULAR VOLUME [1]: 63.3 fL
MONOCYTE [1]: 2.5%
NEUTROPHIL [1]: 9.33%
NUCLEATED RED BLOOD CELLS [1]: 0 /100WBC
PLATELET COUNT [1]: 1032 x10E3/uL
ALANINE AMINOTRANSFERASE [1]: 72.83 u/L
ALBUMIN [1]: 4 G/DL
ALKALINE PHOSPHATASE [1]: 322.83 u/L
ASPARTATE AMINOTRANSFERASE [1]: 102.67 u/L
BLOOD UREA NITROGEN [1]: 12 mg/dL
CARBON DIOXIDE [1]: 34.33 mmol/L
CHLORIDE [1]: 97.67 MEQ/L
CHOLESTEROL [1]: 82.5 mg/dL
CREATINE PHOSPHOKINASE [1]: 410.33 u/L
CREATININE [1]: 0.18 mg/dL
GLUCOSE [1]: 164.5 mg/dL
LACTATE DEHYDROGENASE [1]: 119.5 u/L
LIPASE [1]: 11.83 u/L
PHOSPHORUS [1]: 9.52 mg/dL
POTASSIUM [1]: 5.56 MEQ/L
SODIUM [1]: 142.48 MEQ/L
TOTAL BILIRUBIN [1]: 0.18 mg/dL
TOTAL PROTEIN [1]: 5.77 G/DL
ABSOLUTE BASOPHIL [2]: 0 CELLS/uL
ABSOLUTE EOSINOPHIL [2]: 0 CELLS/uL
ABSOLUTE LYMPHOCYTE [2]: 9065 CELLS/uL
ABSOLUTE MONOCYTE [2]: 341.33 CELLS/uL
ABSOLUTE SEGMENTED NEUTROPHIL [2]: 527 CELLS/uL
BASOPHIL [2]: 0%
EOSINOPHIL [2]: 0%
ERYTHROCYTE COUNT [2]: 5.25 x10E6/uL
HEMATOCRIT [2]: 34.08%
HEMOGLOBIN [2]: 13.5 G/DL
LEUKOCYTE COUNT [2]: 9.93 x10E3/uL
LYMPHOCYTE [2]: 91.17%
MEAN CORPUSCULAR HEMOGLOBIN [2]: 25.7 pg
MEAN CORPUSCULAR HEMOGLOBIN CONCENTRATION [2]: 39.62 G/DL
MEAN CORPUSCULAR VOLUME [2]: 64.93 fL
MONOCYTE [2]: 3.33%
NEUTROPHIL [2]: 5.5%
NUCLEATED RED BLOOD CELLS [2]: 0 /100WBC
PLATELET COUNT [2]: 1077.5 x10E3/uL
ALANINE AMINOTRANSFERASE [2]: 57.83 u/L
ALBUMIN [2]: 4.07 G/DL
ALKALINE PHOSPHATASE [2]: 319.17 u/L
ASPARTATE AMINOTRANSFERASE [2]: 83.33 u/L
BLOOD UREA NITROGEN [2]: 13.67 mg/dL
CARBON DIOXIDE [2]: 30.83 mmol/L
CHLORIDE [2]: 98.33 MEQ/L
CHOLESTEROL [2]: 64.83 mg/dL
CREATINE PHOSPHOKINASE [2]: 263.67 u/L
CREATININE [2]: 0.2 mg/dL
GLUCOSE [2]: 182.83 mg/dL
LACTATE DEHYDROGENASE [2]: 124 u/L
LIPASE [2]: 10.5 u/L
PHOSPHORUS [2]: 10 mg/dL
POTASSIUM [2]: 5.78 MEQ/L
SODIUM [2]: 142.48 MEQ/L
TOTAL BILIRUBIN [2]: 0.2 mg/dL
TOTAL PROTEIN [2]: 6 G/DL
ABSOLUTE BASOPHIL [3]: 0 CELLS/uL
ABSOLUTE EOSINOPHIL [3]: 46.33 CELLS/uL
ABSOLUTE LYMPHOCYTE [3]: 12847 CELLS/uL
ABSOLUTE MONOCYTE [3]: 96.67 CELLS/uL
ABSOLUTE SEGMENTED NEUTROPHIL [3]: 810 CELLS/uL
BASOPHIL [3]: 0%
EOSINOPHIL [3]: 0.33%
ERYTHROCYTE COUNT [3]: 5.4 x10E6/uL
HEMATOCRIT [3]: 34.8%
HEMOGLOBIN [3]: 13.67 G/DL
LEUKOCYTE COUNT [3]: 13.8 x10E3/uL
LYMPHOCYTE [3]: 93%
MEAN CORPUSCULAR HEMOGLOBIN [3]: 25.3 pg
MEAN CORPUSCULAR HEMOGLOBIN CONCENTRATION [3]: 39.27 G/DL
MEAN CORPUSCULAR VOLUME [3]: 64.37 fL
MONOCYTE [3]: 0.67%
NEUTROPHIL [3]: 6%
NUCLEATED RED BLOOD CELLS [3]: 0 /100WBC
PLATELET COUNT [3]: 979.33 x10E3/uL
ALANINE AMINOTRANSFERASE [3]: 61.33 u/L
ALBUMIN [3]: 3.93 G/DL
ALKALINE PHOSPHATASE [3]: 390.33 u/L
ASPARTATE AMINOTRANSFERASE [3]: 85.33 u/L
BLOOD UREA NITROGEN [3]: 9.33 mg/dL
CARBON DIOXIDE [3]: 28 mmol/L
CHLORIDE [3]: 101 MEQ/L
CHOLESTEROL [3]: 69.67 mg/dL
CREATINE PHOSPHOKINASE [3]: 135.67 u/L
CREATININE [3]: 0.31 mg/dL
GLUCOSE [3]: 158.67 mg/dL
LACTATE DEHYDROGENASE [3]: 101.67 u/L
LIPASE [3]: 14.33 u/L
PHOSPHORUS [3]: 10.5 mg/dL
POTASSIUM [3]: 6.13 MEQ/L
SODIUM [3]: 144.7 MEQ/L
TOTAL BILIRUBIN [3]: 0.17 mg/dL
